From patent US20110189199A1, “METHODS FOR P2RY5 MEDIATED REGULATION OF HAIR GROWTH AND MUTANTS THEREOF” (priority 2008, published 2011)

Tests used:
[1] = target: P2RY5 receptor (Homo sapiens, UniProt P43657, DEL128-129/DEL256-257/Q258T); test: Tango P2RY5 U2OS beta-lactamase reporter assay; assay type: cell-based
Description: The Tango™ P2RY5 U2OS antibiotic selected pool cells were plated at 10,000 cells/well into a 384 well clear bottom assay plate in Freestyle™ media. FBS (Fetal Bovine 20%) or a PMA concentration dilution series (in Freestyle™ media) was then added to the plate at the indicated concentrations. The plate was placed at 37° C. 5% CO2 for 24 hours for receptor stimulation followed by betalactamase substrate loading for 2 hours. (The P2RY5 cells were also tested with a 48 hour stimulation time with equivalent results.)
(§1) The antibiotic selected Tango™ P2RY5 U2OS cells were cultured to 80-90% confluence in tissueculture flasks. The growth media was then removed and replaced with Freestyle™ media either with (stimulated) or without (un-stimulated) 20% FBS. The cultures were then placed at 37° C. 5% CO2 for 48 hours for receptor stimulation followed by beta-lactamase substrate loading for 2 hours. Responsive cells were then sorted by FACS into a single pool and three 96 well plates of clones.
The Tango™ P2RY5 U2OS cells were plated at 10,000 cells/well into a 384 well clear bottom assay plate in Freestyle™ media. FBS was then added to half the wells in the assay to a concentration of 20% (stimulated) while the other half of the assay received an equal volume of Freestyle™ Media (un-stimulated). The plate was placed at 37° C. 5% CO2 for 48 hours for receptor stimulation followed by betalactamase substrate loading for 2 hours.
as §1, with “selected FACS sorted responsive cell” for “selected”, “U2OS Pool was” for “U2OS cells were”, “in two tissue culture” for “in tissueculture”, “a green cell pool from the un-stimulated cell sample, and into a blue cell” for “a single”, “of clones from the FBS stimulated sample.” for “of clones.”
The Tango™ P2RY5 U2OS sorted pool cells were plated at 10,000 cells/well into a 384 well clear bottom assay plate in FreeStyle™ media. The dFBS was immediately added to plate to final concentration of 20% by volume (stimulated). An equal volume of Free Style™ media was added to the un-stimulated wells. The plate was placed at 37° C. 5% CO2 for 48 hrs for receptor stimulation followed by beta-lactamase substrate loading for 2 hours.
The Tango™ P2RY5 U2OS sorted pool cells were plated at 10,000 cells/well into a 384 well clear bottom assay plate in FreeStyle™ media. The plate was placed at 37° C. […]

[2] = system: Tango™ P2RY5 U2OS Clone 10F cells; test: Cell death at high PMA concentrations in the Tango P2RY5 assay; assay type: cell-based
Description: The Tango™ P2RY5 U2OS Clone 10F cells were plated at 10,000 cells/well into a 384 well clear bottom assay plate in 32 μl/well Freestyle™ medium. 4 μl/well 10× DMSO in Freestyle™ medium was then added to the wells of the assay plate to bring the final DMSO concentration in the wells to 0% (no DMSO), 0.1%, 0.5% or 1.0% DMSO. 4 μl/well PMA (10× in Freestyle™ medium) was immediately added to the plate to the indicated concentrations. The plate was placed at 37° C./5% CO2 for 18 hours for receptor stimulation followed by beta-lactamase substrate loading for 2 hours.
The Tango™ P2RY5 U2OS Clone 10F cells were plated at 10,000 cells/well into two 384 well clear bottom assay plate in 32 μl/well Freestyle™ medium. One plate was placed at 37° C./5% CO2 for 18 hours prior to PMA stimulation for 5 hours while PMA was immediately added to the other plate for an 18 hours stimulation. At the time of stimulation 4 μl/well of a 10× stock of DMSO in Freestyle™ medium was added to the wells of the assay plate to bring the final DMSO concentration in the wells to 0.1% DMSO. 4 μl/well PMA (10× in Freestyle™ medium) was then added to the plate to the indicated concentrations. The plates were placed at 37° C./5% CO2 for 5 or 18 hours for receptor stimulation followed by beta-lactamase substrate loading for 2 h.
Tango™ P2RY5 U2OS clone 10F cells were cryopreserved at 2.5×10̂6 cells/ml in Recovery™ freezing medium in liquid nitrogen for several days. The cells were thawed into Freestyle™ assay medium prior to use in the assay. The Tango™ P2RY5 U2OS Clone 10F cells were plated at 10,000 cells/well into two 384 well clear bottom assay plate in 32 μl/well Freestyle™ medium. One plate was placed at 37° C./5% CO2 for 18 hours prior to PMA stimulation for 5 hours while PMA was immediately added to the other plate for an 18 hour stimulation. At the time of stimulation 4 μl/well of a 10× stock of DMSO in Freestyle™ medium was added to the wells of the assay plate to bring the final DMSO concentration in the wells to 0.1% DMSO. […]

Chain of P2RY5 receptor (P43657 with tags, fused parts or gaps DEL128-129/DEL256-257/Q258T): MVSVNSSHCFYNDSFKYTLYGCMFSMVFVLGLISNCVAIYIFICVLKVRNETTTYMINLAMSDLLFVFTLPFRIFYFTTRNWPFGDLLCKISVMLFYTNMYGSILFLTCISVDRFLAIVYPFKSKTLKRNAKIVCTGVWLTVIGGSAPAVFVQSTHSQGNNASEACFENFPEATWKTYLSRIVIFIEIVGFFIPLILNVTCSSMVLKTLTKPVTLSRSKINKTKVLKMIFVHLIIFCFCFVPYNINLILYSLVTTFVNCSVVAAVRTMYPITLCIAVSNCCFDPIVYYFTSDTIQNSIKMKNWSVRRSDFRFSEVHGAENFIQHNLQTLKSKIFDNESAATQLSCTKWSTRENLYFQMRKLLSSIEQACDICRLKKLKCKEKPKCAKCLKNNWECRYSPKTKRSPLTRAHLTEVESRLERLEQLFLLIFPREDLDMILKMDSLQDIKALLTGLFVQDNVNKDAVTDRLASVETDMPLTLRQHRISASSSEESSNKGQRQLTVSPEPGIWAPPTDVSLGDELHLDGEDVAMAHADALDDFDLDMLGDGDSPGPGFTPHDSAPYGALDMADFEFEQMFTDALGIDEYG

With `CCCCCCCCCCCCCC(=O)O[C@@H]1[C@@H](C)[C@@]2(O)[C@@H](C=C(CO)C[C@]3(O)C(=O)C(C)=C[C@@H]23)[C@@H]2C(C)(C)[C@]12OC(C)=O` [PMA] the “assay window, 5 hour vs 18 hour stimulation time” value ([1]; Clone 10F, 5 hour stimulation, 0.1% DMSO) was “larger assay window than the 18 hour stimulation time”, the “response to PMA, cryopreserved vs dividing cells” value ([1]; Clone 10F, cryopreserved cells, 5 or 18 hours stimulation) was “slightly less potent response” and the “beta-lactamase response through the P2RY5 receptor” value ([1]; Green sort pool, 5 hours stimulation) was “slight inducible beta-lactamase response”. The “beta-lactamase response through the P2RY5 receptor” value ([1]; sorted clones, 18 hours stimulation) was “concentration dependant beta-lactamase response”, the “PMA concentrations with cell death in the wells” value (shortened to “PMA concentrations”) ([2]; cryopreserved cells, 18 hours stimulation) was “greater than 100 nM” and the “PMA concentrations” value ([2]; dividing cells, 5 hour stimulation) was over 1 µM. The “PMA concentrations” value ([2]; dividing cells, 18 hour stimulation) was “greater than 100 nM”.
